Measurements reported in ChEMBL document CHEMBL2074298, “Inhibition of vinblastine efflux mediated by P-glycoprotein by grapefruit juice components in caco-2 cells” (Biol Pharm Bull, 1998).

How the values were obtained:
[1] = molecular target: T1, ATP-dependent translocase ABCB1 (Homo sapiens, UniProt P08183); experiment: TP_TRANSPORTER: increase in Vinblastine transepithelial transpot (apical to basal)(Vinblastine: 0.01 uM, Naringenin: 855 uM) in Caco-2 cells; assay type: functional, cell-based; conditions: caco-2, 855 µM
T1 sequence (P08183 whole entry): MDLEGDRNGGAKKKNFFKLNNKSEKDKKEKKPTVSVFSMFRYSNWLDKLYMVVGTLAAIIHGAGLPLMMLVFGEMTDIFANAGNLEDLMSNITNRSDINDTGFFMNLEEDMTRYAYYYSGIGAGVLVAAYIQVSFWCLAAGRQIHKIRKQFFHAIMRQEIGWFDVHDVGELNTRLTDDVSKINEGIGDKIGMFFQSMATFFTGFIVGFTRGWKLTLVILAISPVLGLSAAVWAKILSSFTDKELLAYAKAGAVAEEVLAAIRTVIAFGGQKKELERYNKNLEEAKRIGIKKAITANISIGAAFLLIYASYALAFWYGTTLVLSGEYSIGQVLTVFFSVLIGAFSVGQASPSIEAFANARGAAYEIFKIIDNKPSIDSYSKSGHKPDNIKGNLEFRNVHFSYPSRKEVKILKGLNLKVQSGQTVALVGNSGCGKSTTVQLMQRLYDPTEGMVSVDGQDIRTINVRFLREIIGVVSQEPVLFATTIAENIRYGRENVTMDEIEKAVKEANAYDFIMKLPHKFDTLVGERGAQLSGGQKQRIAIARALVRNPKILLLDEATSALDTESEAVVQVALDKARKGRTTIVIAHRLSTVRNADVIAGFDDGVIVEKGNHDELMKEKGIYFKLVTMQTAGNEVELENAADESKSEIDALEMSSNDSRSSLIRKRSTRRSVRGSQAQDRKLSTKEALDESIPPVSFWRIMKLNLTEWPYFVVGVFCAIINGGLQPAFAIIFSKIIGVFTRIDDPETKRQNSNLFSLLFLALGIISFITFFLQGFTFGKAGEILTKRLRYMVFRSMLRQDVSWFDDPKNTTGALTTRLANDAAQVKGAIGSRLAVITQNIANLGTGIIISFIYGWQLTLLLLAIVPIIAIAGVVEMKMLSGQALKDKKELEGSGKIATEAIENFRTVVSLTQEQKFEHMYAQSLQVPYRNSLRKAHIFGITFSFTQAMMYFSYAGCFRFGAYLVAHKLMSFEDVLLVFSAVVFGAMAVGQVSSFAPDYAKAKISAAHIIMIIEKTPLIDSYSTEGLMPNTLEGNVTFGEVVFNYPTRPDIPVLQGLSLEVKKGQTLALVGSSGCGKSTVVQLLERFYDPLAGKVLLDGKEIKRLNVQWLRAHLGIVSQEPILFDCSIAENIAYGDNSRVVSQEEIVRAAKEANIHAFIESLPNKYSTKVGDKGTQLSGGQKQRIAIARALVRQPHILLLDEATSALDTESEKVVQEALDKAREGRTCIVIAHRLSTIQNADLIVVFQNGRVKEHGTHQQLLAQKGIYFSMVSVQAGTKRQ

[2] = molecular target: T1, ATP-dependent translocase ABCB1; experiment: TP_TRANSPORTER: increase in Vinblastine transepithelial transpot (apical to basal) (Vinblastine: 0.01 uM, GFJ: 50 %) in Caco-2 cells; assay type: functional, cell-based

Activity [2] [%]	Compound	Activity [1] [%]
	O=C1C[C@@H](c2ccc(O)cc2)Oc2cc(O)cc(O)c21 [NARINGENIN]	240
240	GRAPEFRUIT JUICE	
